Laboratory results taken from US20130217712A1, “[…] FOR EGFR INHIBITOR TREATMENT” (Hoffmann-La Roche Inc., priority 2007, published 2013).

What was measured:
[1] = system: patients with advanced NSCLC following failure of at least one prior chemotherapy regimen; assay: Open-label Phase II predictive marker identification study of Tarceva monotherapy, response by RECIST and survival; format: in vivo, human; settings: all enrolled patients n=264; oral 150 mg/day
Protocol: The selection of this dose was based on pharmacokinetic parameters, as well as the safety and tolerability profile of this dose observed in Phase I, II and III trials in heavily pre-treated patients with advanced cancer. Drug levels seen in the plasma of patients with cancer receiving the 150 mg/day dose were consistently above the average plasma concentration of 500 ng/ml targeted for clinical efficacy.
This was an open-label, predictive marker identification Phase II study. The study was conducted in approximately 26 sites in about 12 countries. 264 patients with advanced NSCLC following failure of at least one prior chemotherapy regimen were enrolled over a 12 month period. […] Dose reductions were permitted based on tolerability to drug therapy. Clinical and laboratory parameters were assessed to evaluate disease control and toxicity. Treatment continued until disease progression, unacceptable toxicity or death. The study design is depicted in FIG. 1.
The RECIST (Uni-dimensional Tumor Measurement) criteria were used to evaluate response. […]
A regular status check every 3 months was performed either by a patient's visit to the clinic or by telephone. All deaths were recorded. […]

[2] = patients with cancer, 150 mg/day dose; 500 ng/ml is the average concentration targeted for clinical efficacy; cited from earlier work

Compound: C#Cc1cccc(Nc2ncnc3cc(OCCOC)c(OCCOC)cc23)c1 [Erlotinib, erlotinib]
- Median overall survival [1]: 7.6 (CI 7-9) months
- median progression-free survival [1]: 11.3 (CI 8-12) weeks
- drug level in plasma [2]: > 500 ng/mL
